Reference: ChEMBL document CHEMBL2177007, “Indole-derived psammaplin A analogues as epigenetic modulators with multiple inhibitory activities” (J Med Chem, 2012)
Active and inactive are the calls of the source. No cut-off for these calls is given here.

How the values were obtained:
[1] = target: T1, NAD-dependent protein deacetylase sirtuin-1 (Homo sapiens) (UniProt Q96EB6); test: Inhibition of SIRT1 in human MCF7 cells assessed as p53 acetylation on lysine 382 at 5 uM after 24 hrs by Western blot analysis; assay type: cell-based
T1 sequence (whole entry): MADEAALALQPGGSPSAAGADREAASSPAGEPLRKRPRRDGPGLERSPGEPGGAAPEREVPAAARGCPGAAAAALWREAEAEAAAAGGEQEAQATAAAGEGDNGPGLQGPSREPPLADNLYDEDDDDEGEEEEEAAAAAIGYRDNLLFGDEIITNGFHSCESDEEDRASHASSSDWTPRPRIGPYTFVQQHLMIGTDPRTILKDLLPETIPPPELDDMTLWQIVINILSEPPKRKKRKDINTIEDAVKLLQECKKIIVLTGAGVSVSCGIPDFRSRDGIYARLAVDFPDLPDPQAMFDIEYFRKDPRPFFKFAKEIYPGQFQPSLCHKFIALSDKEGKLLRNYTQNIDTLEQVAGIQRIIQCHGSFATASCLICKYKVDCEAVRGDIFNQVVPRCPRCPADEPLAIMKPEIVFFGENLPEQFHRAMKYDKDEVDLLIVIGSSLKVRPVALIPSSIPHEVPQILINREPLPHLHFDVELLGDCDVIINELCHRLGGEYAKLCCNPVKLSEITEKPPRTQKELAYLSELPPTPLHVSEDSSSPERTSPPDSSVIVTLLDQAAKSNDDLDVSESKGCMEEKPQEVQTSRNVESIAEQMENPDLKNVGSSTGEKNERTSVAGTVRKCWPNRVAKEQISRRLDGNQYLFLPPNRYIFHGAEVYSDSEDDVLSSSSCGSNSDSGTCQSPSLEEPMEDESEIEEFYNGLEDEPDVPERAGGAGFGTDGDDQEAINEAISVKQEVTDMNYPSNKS

U-937 [2] = test: Induction of cell differentiation in human U937 cells assessed as CD11c expression at 5 uM after 30 hrs by cytofluorimetric analysis; assay type: functional, cell-based
[3] = target: DNA (cytosine-5)-methyltransferase 1 (Homo sapiens) (UniProt P26358); test: Inhibition of recombinant DNMT1 using S-adenosyl-L-[methyl-3H]methionine as substrate at 5 uM after 2 hrs by radioactive assay
Chain of DNA (cytosine-5)-methyltransferase 1 (Homo sapiens) (P26358 whole entry): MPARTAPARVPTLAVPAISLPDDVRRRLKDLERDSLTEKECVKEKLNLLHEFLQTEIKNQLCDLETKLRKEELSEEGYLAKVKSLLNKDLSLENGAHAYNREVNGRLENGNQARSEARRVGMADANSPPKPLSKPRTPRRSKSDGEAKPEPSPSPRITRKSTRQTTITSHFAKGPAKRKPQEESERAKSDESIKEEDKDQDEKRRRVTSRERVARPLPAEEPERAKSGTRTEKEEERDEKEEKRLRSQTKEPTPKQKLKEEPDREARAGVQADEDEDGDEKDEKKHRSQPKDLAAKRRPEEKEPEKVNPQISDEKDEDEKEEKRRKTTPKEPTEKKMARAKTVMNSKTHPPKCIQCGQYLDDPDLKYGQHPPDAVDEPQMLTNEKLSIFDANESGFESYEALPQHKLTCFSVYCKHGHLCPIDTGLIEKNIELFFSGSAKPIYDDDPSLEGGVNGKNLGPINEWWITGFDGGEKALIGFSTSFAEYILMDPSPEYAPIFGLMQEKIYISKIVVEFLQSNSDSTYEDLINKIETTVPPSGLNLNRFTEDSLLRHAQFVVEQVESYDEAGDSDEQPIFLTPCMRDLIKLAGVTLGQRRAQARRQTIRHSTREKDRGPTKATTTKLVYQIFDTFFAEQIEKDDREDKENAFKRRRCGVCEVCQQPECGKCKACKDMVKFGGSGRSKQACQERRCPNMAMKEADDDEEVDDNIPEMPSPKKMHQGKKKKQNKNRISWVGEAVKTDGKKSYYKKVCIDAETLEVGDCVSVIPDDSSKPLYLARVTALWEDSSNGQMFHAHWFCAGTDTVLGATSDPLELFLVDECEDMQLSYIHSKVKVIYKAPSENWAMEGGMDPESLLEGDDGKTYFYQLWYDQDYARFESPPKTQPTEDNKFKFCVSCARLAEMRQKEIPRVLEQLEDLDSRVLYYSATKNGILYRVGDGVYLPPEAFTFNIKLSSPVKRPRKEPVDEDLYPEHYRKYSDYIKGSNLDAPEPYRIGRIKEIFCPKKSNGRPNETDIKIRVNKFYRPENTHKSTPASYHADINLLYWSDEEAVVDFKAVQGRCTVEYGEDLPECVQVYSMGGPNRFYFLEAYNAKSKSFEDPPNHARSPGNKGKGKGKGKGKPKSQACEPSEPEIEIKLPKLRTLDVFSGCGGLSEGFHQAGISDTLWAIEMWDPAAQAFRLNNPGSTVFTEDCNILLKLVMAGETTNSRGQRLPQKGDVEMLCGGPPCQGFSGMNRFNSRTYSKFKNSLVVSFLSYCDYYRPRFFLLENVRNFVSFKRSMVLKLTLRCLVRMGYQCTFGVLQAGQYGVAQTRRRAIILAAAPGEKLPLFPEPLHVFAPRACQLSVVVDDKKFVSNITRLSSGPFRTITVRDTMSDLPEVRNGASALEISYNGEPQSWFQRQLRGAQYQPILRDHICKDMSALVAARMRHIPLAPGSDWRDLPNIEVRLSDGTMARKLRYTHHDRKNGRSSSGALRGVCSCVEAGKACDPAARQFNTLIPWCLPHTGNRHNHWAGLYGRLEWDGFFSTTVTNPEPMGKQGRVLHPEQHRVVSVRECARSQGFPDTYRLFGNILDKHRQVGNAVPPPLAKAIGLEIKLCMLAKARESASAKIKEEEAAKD

[4] = target: T1, NAD-dependent protein deacetylase sirtuin-1 (Homo sapiens); test: Inhibition of human recombinant SIRT1 using KI-177 as substrate at 5 uM after 30 mins by fluorescence assay
[5] = target: Histone deacetylase 4 (Homo sapiens) (UniProt P56524); test: Inhibition of HDAC4 in human U937 cells at 5 uM […]; assay type: cell-based; settings: U-937
Chain of Histone deacetylase 4 (Homo sapiens) (P56524 whole entry): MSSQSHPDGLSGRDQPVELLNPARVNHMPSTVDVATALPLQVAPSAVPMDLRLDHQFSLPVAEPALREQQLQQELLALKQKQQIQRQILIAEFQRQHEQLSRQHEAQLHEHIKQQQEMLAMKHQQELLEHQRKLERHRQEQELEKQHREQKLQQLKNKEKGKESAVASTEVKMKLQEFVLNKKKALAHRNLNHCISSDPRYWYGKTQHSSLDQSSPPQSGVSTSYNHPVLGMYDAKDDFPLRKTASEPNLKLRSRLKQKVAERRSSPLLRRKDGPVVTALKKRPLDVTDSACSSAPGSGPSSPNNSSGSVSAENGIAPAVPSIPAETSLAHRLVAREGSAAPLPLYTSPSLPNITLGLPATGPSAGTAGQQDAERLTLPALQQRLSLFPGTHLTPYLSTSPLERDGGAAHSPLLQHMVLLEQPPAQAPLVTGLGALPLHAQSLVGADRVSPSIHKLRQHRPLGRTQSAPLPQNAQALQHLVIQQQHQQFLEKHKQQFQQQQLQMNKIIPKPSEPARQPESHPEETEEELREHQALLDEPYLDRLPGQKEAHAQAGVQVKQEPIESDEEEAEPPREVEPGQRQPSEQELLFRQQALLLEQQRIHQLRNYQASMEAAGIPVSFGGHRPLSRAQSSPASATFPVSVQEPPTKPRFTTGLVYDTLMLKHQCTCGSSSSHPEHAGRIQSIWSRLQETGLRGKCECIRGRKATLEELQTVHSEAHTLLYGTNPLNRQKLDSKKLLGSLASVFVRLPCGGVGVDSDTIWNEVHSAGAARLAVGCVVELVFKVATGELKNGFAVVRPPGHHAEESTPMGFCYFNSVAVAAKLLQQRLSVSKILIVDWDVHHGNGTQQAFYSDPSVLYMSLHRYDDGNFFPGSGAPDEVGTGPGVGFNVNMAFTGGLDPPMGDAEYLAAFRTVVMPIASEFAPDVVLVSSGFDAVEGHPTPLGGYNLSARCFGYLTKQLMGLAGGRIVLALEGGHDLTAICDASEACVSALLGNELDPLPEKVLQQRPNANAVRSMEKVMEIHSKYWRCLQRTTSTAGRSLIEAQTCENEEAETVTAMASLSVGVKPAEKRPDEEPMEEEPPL

U-937 [6] = test: Cell cycle arrest in human U937 cells assessed as accumulation at G2M phase at 5 uM after 24 hrs by cytofluorimetric analysis; assay type: functional, cell-based
U-937 [7] = test: Cell cycle arrest in human U937 cells assessed as accumulation at G1 phase at 5 uM after 24 hrs by cytofluorimetric analysis; assay type: functional, cell-based
[8] = target: T1, NAD-dependent protein deacetylase sirtuin-1 (Homo sapiens); test: Inhibition of SIRT1 in human U937 cells assessed as H3 acetylation on lysine K9 at 5 uM after 24 hrs by Western blot analysis; assay type: cell-based; settings: U-937
[9] = target: Histone deacetylase 1 (Homo sapiens) (UniProt Q13547); test: Inhibition of HDAC1 in human U937 cells at 5 uM […]; assay type: cell-based; settings: U-937
Chain of Histone deacetylase 1 (Homo sapiens) (Q13547 whole entry): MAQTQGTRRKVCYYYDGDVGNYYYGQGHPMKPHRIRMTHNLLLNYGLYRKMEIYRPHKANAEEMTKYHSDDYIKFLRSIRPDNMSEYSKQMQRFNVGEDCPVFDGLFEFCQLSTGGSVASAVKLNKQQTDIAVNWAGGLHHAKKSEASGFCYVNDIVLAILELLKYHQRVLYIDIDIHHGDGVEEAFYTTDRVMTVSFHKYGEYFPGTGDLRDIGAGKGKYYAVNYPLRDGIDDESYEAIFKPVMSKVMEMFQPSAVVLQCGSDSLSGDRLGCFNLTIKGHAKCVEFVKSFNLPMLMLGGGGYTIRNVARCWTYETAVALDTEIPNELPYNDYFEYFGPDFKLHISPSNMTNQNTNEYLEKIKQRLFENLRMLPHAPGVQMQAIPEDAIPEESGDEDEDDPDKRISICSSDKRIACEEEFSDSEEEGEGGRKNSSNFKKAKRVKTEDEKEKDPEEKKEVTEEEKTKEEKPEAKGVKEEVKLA

U-937 [10] = test: Induction of apoptosis in human U937 cells at 5 uM after 30 hrs; assay type: functional, cell-based
[11] = target: Histone deacetylase (Homo sapiens) (UniProt Q13547+O15379+Q9UBN7+Q92769+Q9UQL6+Q8WUI4+Q9BY41+Q96DB2+P56524+Q9UKV0+Q969S8); test: Inhibition of HDAC in human U937 cells assessed as induction of histone H3 acetylation at 5 uM after 30 hrs by cytofluorimetric analysis; assay type: cell-based; settings: U-937
[12] = target: T2, Protein deacetylase HDAC6 (Homo sapiens) (UniProt Q9UBN7); test: Inhibition of HDAC6 in human U937 cells assessed as induction of alpha-tubulin acetylation at 5 uM after 30 hrs by cytofluorimetric analysis; assay type: cell-based; settings: U-937
T2 sequence (whole entry): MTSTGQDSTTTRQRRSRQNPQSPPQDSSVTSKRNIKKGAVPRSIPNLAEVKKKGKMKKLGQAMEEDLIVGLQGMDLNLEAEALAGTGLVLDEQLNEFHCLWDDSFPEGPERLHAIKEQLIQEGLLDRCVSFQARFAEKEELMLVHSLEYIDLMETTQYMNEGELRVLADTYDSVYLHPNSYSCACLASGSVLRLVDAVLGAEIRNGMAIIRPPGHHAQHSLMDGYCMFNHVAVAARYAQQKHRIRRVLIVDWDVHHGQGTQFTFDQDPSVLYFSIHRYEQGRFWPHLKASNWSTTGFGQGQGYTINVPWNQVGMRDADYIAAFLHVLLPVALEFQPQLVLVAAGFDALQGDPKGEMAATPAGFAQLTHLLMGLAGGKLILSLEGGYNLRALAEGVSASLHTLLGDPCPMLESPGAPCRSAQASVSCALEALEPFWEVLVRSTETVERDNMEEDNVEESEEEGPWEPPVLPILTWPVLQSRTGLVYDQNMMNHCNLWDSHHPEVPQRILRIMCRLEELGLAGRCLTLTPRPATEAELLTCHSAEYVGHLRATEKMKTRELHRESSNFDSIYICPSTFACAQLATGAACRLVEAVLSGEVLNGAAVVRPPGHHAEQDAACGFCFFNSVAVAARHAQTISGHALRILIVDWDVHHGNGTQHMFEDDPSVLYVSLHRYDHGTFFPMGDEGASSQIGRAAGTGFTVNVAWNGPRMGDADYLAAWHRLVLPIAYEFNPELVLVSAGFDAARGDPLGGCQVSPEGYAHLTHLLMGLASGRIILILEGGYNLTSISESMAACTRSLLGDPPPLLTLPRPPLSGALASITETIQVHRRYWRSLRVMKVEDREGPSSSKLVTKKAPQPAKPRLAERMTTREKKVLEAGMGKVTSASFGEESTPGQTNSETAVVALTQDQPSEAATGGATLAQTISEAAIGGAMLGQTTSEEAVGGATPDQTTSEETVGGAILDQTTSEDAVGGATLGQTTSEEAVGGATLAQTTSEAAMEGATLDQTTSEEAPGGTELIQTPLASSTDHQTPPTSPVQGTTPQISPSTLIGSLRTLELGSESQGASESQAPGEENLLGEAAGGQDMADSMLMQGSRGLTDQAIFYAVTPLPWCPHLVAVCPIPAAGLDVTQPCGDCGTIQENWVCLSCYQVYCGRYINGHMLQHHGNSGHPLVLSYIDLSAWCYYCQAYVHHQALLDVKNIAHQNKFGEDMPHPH

U-937 [13] = test: Effect on DNMT1 level in human U937 cells at 0.5 to 5 uM after 24 hrs by Western blot analysis; assay type: functional, cell-based
[14] = target: DNA (cytosine-5)-methyltransferase 1 (Homo sapiens) (UniProt P26358); test: Inhibition of DNMT1 human u937 cells assessed as reactivation of p16 expression at 0.5 to 5 uM after 24 hrs by Western blot analysis
[15] = target: Protein kinase C alpha type (Homo sapiens) (UniProt P17252); test: Inhibition of PKCalpha in human U937 cells assessed as p21WAF1/CIP1 expression at 5 uM after 30 hrs by cytofluorimetric analysis; assay type: cell-based; settings: U-937
AML = test: Induction of apoptosis in AML patient blasts at 5 uM after 26 hrs; assay type: functional; settings: Homo sapiens
[16] = target: T1, NAD-dependent protein deacetylase sirtuin-1 (Homo sapiens); test: Inhibition of SIRT1 in human U937 cells assessed as H3 acetylation on lysine K56 at 5 uM after 24 hrs by Western blot analysis; assay type: cell-based; settings: U-937
[17] = Cell cycle arrest in apoptosis in AML patient blasts at 5 uM after 26 hrs; assay type: functional; settings: Homo sapiens
[18] = target: DNA (cytosine-5)-methyltransferase 1 (Homo sapiens) (UniProt P26358); test: Inhibition of DNMT1 human U937 cells assessed as reactivation of p16 expression at 5 uM after 24 hrs by Western blot analysis; assay type: cell-based; settings: U-937
U-937 [19] = test: Cell cycle arrest in human U937 cells at 5 uM after 24 hrs by cytofluorimetric analysis; assay type: functional, cell-based
[20] = target: T1, NAD-dependent protein deacetylase sirtuin-1 (Homo sapiens); test: Inhibition of SIRT1 in human MCF7 cells assessed as p53 acetylation on lysine 382 after 24 hrs by Western blot analysis; assay type: cell-based

Row | SMILES | inhibition [1] | Activity (U-937 [2]) | inhibition [3] | inhibition [4] | inhibition [5] | inhibition [8] | inhibition [9] | Activity (U-937 [10]) | inhibition [11] | inhibition [12] | Activity (U-937 [13]) | inhibition [14] | inhibition [15] | Activity (AML) | inhibition [16] | Activity [17] | inhibition [18] | Activity (U-937 [19]) | other results
1 | CSCCNC(=O)/C(Cc1c[nH]c2ccc(Br)cc12)=N/O | Active | Active | inactive | inactive | 20% | Active | 40% | inactive | Active | Active | inactive | Active | Active | Active | Active | – | – | – | Activity (U-937 [6]): inactive; Activity (U-937 [7]): Active
2 | O=C(NCCSSCCNC(=O)/C(Cc1c[nH]c2ccc(Br)cc12)=N/O)/C(Cc1c[nH]c2ccc(Br)cc12)=N/O | Active | – | Active | Active | 40% | – | 60% | Active | Active | Active | inactive | Active | Active | Active | – | Active | Active | – | –
3 | O=C(NCCSSCCNC(=O)/C(Cc1c[nH]c2cc(Br)ccc12)=N/O)/C(Cc1c[nH]c2cc(Br)ccc12)=N/O | – | Active | – | – | 40% | – | 60% | Active | Active | Active | – | – | Active | Active | – | Active | – | Active | –
4 | O=C(NCCSSCCNC(=O)/C(Cc1c[nH]c2c(Br)cccc12)=N/O)/C(Cc1c[nH]c2c(Br)cccc12)=N/O | – | Active | – | – | 40% | – | 60% | Active | Active | Active | – | – | Active | Active | – | Active | – | Active | –
5 | O=C(NCCSSCCNC(=O)/C(Cc1ccc(O)c(Br)c1)=N/O)/C(Cc1ccc(O)c(Br)c1)=N/O | – | – | – | – | – | – | – | Active | – | Active | – | – | – | Active | – | Active | – | – | –
6 | Cn1cc(C/C(=N\O)C(=O)NCCSSCCNC(=O)/C(Cc2cn(C)c3ccc(Br)cc23)=N/O)c2cc(Br)ccc21 | – | Active | inactive | inactive | – | Active | Active | Active | Active | Active | inactive | Active | Active | – | Active | – | Active | – | inhibition [20]: Dose-dependent effect
